From ChEMBL document CHEMBL4339191 (J Med Chem, 2019) come the findings set out here.

The target of series [1] is T1, Aldo-keto reductase family 1 member C1 (Homo sapiens, UniProt Q04828).
T1 sequence (Q04828 whole entry): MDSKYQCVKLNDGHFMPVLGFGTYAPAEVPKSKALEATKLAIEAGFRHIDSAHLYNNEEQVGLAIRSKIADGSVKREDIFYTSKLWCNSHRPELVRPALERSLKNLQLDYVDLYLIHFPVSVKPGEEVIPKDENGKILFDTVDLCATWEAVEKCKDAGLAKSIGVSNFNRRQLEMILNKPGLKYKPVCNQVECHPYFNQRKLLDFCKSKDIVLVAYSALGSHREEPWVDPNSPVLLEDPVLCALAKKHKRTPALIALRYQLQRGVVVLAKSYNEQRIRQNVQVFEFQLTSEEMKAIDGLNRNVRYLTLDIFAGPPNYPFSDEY
Kind of series: Inhibition of recombinant human AKR1C1 expressed in Escherichia coli BL21 […] at 100 uM using S-tetralol as substrate in presence of NADP+ by UV-spectrophotometric method relative to control.

The target in a further series is T2, AKR1C2 (Homo sapiens, UniProt P52895).
T2 sequence (P52895 whole entry): T1 sequence (Q04828 whole entry) with T38V, R47H, L54V, C87S, V151M, R170H, Q172L
Kind of series: in vitro. Conditions: probe S-tetralol; call rule not given here.

Another series deals with T3, AKR1C1 (Homo sapiens, UniProt Q04828).
T3 sequence (Q04828 whole entry): T1 sequence (Q04828 whole entry)
Kind of series: in vitro. As to conditions: probe S-tetralol.

Series [2] addresses T4, Aldo-keto reductase family 1 member C3 (Homo sapiens, UniProt P42330).
T4 sequence (P42330 whole entry): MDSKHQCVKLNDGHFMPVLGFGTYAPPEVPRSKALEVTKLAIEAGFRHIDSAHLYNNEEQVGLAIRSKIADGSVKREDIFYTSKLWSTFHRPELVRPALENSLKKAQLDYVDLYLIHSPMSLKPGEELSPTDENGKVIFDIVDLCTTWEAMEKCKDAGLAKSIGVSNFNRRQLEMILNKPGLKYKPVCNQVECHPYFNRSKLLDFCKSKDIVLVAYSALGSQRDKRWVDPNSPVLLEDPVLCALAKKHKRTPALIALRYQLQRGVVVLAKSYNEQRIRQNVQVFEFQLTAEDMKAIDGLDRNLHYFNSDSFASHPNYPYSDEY
Description: Inhibition of recombinant full-length human N-terminal His6-tagged AKR1C3 expressed in Escherichia coli BL21 (DE3) using phenanthrenequinone as substrate in presence of NADPH generating system

Numbering of substitutions follows the chain as printed.

Description for AKR1C1: Inhibition of recombinant human AKR1C1 expressed in Escherichia coli BL21 (D3) at 200 uM using S-tetralol as substrate in presence of NADP+ by UV-spectrophotometric method relative to control
Description for AKR1C2: Inhibition of recombinant human AKR1C2 expressed in Escherichia coli BL21 (D3) at 200 uM using S-tetralol as substrate in presence of NADP+ by UV-spectrophotometric method relative to control

Consider `CC(C)=CCc1cc(/C=C/C(=O)O)cc(C(=O)NCc2ccc(N(C)C)cc2)c1`, for which the “inhibition (INH)” value in series [1] was “Not Active”.

Turning to `CC(C)=CCc1cc(/C=C/C(=O)O)cc(C(=O)NCc2ccc(C)cc2)c1`, the inhibition (as a rule, the percentage by which the read-out fell short of the control) at 200 µM on AKR1C2 is 66.5%.

Consider `CC(C)=CCc1cc(/C=C/C(=O)O)cc(C(=O)NCc2cccc(OC(F)(F)F)c2)c1`, for which the inhibition at 200 µM on AKR1C1 amounted to 10.6%.

For `COc1ccc(CNC(=O)c2cc(/C=C/C(=O)O)cc(CC=C(C)C)c2)cc1`, the “inhibition (INH)” value in series [1] was “Not Active”.

As for `CC/C=C\C[C@H]1C(=O)CC[C@@H]1CC(=O)O` [JASMONIC ACID], the affinity in series [2] corresponds to a Ki of 24 µM.
